Laboratory results as given in patent US8809298B2, “Methods, compositions, unit dosage forms, and kits testing for pharmacologic stress testing with reduced side effects” (Adenobio N.V., priority 2006, dated 2014).
“And” between values parts separate entries of the source, which are not always exact repeats. Equal values may be shown once.

Assays:
[1] = test system: patients suffering from ischemic heart disease; details: human, in vivo, iv
Description: (§1) Primary efficacy end-points were peak and mean diastolic flow velocities (measured as reflecting coronary blood flow values). The secondary end-point was patient tolerance to the procedure.
(§2) VAS scores provide a measure of patient self-assessment of pain intensity/discomfort.

[2] = test system: patients suffering from ischemic heart disease; test: Transthoracic doppler echocardiography (TTDE): blood flow velocity in the left anterior descending coronary artery (LAD); assay type: in vivo, human; details: for MV-DIP Min / PV-DIP Min: at rest, dipyridamole alone arm; for Mean velocity ADE Max / Peak velocity ADE Max: adenosine alone 140 μg/kg/min IV, under stress conditions; for Mean velocity ADE Min / Peak velocity ADE Min: at rest (basal conditions) before adenosine 140 μg/kg/min
Description: In the combined administration, each of the two agents was administered at a dosage lower than its clinically preferred dosage when used as a single agent for myocardial perfusion imaging. Effects were measured using noninvasive transthoracic doppler echocardiography (TTDE).
The protocol was designed as follows.
Forty (40) consecutive patients suffering from ischemic heart disease were enrolled. Each patient served as their own control.
[…] These total doses are between about 4-6% of the lowest single-agent total dose of dipyridamole (i.e., 0.56 mg/kg, infused over a total of 4 minutes).
This dose is half the standard single-agent dosage rate of 140 μg/kg/min.

[3] = cited from earlier work
coronary patients [4] = test: Safety of the procedure in the Phase II SPECT study: adverse events, visual scale, ST changes on EKG; assay type: in vivo, human
Description: Given the similar adverse effect profile, the 40 μg/kg dipyridamole dose is currently preferred, since it tends to show greater efficacy.
Table 13 gives adverse event severity cumulated scores, evaluated on a visual scale (going from 0 to 10), for the first 27 patients.
At this point in time, no difference in the occurrence of A2 receptor-related side effects, or severity of symptoms, has become clearly apparent as between the combination stressor and Adenoscan. In contrast, the reduction in the occurrence (−43%) and severity (−69%) of chest pain (an A1 receptor-related adverse effect) has already become manifest in the first 27 patients. […] The difference in ST-variation for each patient alone is not significant, but the total difference has achieved significance, with a clear trend in favor of the combination. In the table below (Table 14) ST-changes/baseline are expressed in millimeters.

coronary patients [5] = test: Phase II SPECT imaging study: stress scores, 17-segment model; assay type: in vivo, human; set-up: key: sum of abnormal segment scores, each 0 = normal to 4 = no uptake; details: adenosine alone 140 μg/kg/min; Series I, individual patients 1-10; listed as Adenoscan
Description: The study, which is ongoing, is a mono-center, single-blind, 2-arm, cross-over trial.
Only those patients in whom an ischemic zone was detected were declared eligible for the second test, and were enrolled in the study if other inclusion criteria were satisfied.
SPECT images were acquired as per the standard approach performed the preceding week.
Randomization of SPECT images, and their analysis by two blinded readers, took place every 10 patients. Anonymous and randomized images were assessed using the standard 17-segment model and the semi-quantitative visual score method on a 5-point scale (from 0 to 4).
The “stress score” is the image of ischemia in one or more of the 17 cardiac segments, as scored from 0 to 4 by the blinded reader using the following scale: normal perfusion=0, mild reduction in counts=1, moderate reduction in counts=2, severe reduction=3, absence of uptake=4). Normally, a zone of ischemia is certain when a score ≧4 is noted. A stress score sums the scores of all abnormal segments.
“Stress score A” is the image score difference between stress conditions between adenosine alone and rest conditions. […] “Delta score” is the difference between “Stress score A” and “Stress score B.” It must not be >2 […]

[6] = test system: patients suffering from ischemic heart disease; test: Patient tolerance in Example 1: adverse events, VAS severity, EKG, vital signs; details: for Mean global visual analogue scale (VAS) score for the three main adverse events: total score of 30, ADE 140 μg/kg/min, SC adenosine 70 μg/kg/min
Description: as §1, §2

[7] = dipyridamole alone, bolus 28 μg/kg, individual patient
[8] = dipyridamole alone, bolus 35 μg/kg, individual patients
[9] = dipyridamole alone, bolus 40 μg/kg, individual patients
[10] = Adenoscan alone 140 μg/kg/min, n=27
[11] = visual scale 0 to 10, cumulated over first 27 patients
[12] = mean of 5 patients (DIP4 group)
[13] = mean of 5 patients (DIP6 group)
[14] = mean of 30 patients (DIP5 group)
[15] = at rest before adenosine infusion, individual patients (second control experiment)
[16] = at rest before first adenosine infusion, individual patients, listed as ADE1
[17] = at rest before first adenosine infusion, mean of 5 patients
[18] = at rest before second adenosine infusion, individual patients, listed as ADE2
[19] = at rest before second adenosine infusion, mean of 5 patients
[20] = first adenosine infusion 140 μg/kg/min, stress, mean of 5 patients
[21] = first vs second adenosine infusion 140 μg/kg/min, 5 patients
[22] = second adenosine infusion 140 μg/kg/min after 5 minute stabilization, stress, individual patients, listed as ADE2
[23] = second adenosine infusion 140 μg/kg/min, stress, mean of 5 patients
[24] = three minute adenosine infusion 140 μg/kg/min, stress, individual patients (second control experiment)
[25] = adenosine alone 140 μg/kg/min, 40 patients

OCCN(CCO)c1nc(N2CCCCC2)c2nc(N(CCO)CCO)nc(N3CCCCC3)c2n1 [DIP, dipyridamole]
Symptoms during a follow-up of 10 minutes [1]: No symptoms | MV-DIP Min ([2]; 28 μg/kg, individual patient): 19 cm/s | PV-DIP Min ([2]; 28 μg/kg, individual patient): 23 cm/sec | MV-DIP Min ([2]; 35 μg/kg, individual patients): 18 cm/s and 22 cm/s | PV-DIP Min ([2]; 35 μg/kg, individual patients): 21 cm/sec and 30 cm/sec | MV-DIP Min ([2]; 40 μg/kg, individual patients): 23 cm/s and 24 cm/s | PV-DIP Min ([2]; 40 μg/kg, individual patients): 33 cm/sec and 34 cm/sec | Effect on peak and mean diastolic velocities ([2]; dipyridamole alone, IV bolus 28 to 40 μg/kg, 5 patients): did not modify | MV-DIP Max [2, 7]: 21 cm/s | PV-DIP Max [2, 7]: 26 cm/sec | MV-DIP Max [2, 8]: 20 cm/s and 28 cm/s | PV-DIP Max [2, 8]: 23 cm/sec and 40 cm/sec | MV-DIP Max [2, 9]: 25 cm/s and 29 cm/s | PV-DIP Max [2, 9]: 35 cm/sec and 40 cm/sec | Stability in solvents ([3]; pH>4, long term): unstable in the long term | Solubility in saline ([3]; saline): poorly soluble

Nc1ncnc2c1ncn2[C@@H]1O[C@H](CO)[C@@H](O)[C@H]1O [ADE, adenosine]
Chest pain: # patients reporting event, ADE (coronary patients [4]; [10]): 14 | Dyspnea: # patients reporting event, ADE (coronary patients [4]; [10]): 11 | Flushing: # patients reporting event, ADE (coronary patients [4]; [10]): 14 | ST-changes/baseline, Adenosine 140 μg/kg/mn (coronary patients [4]; EKG, individual patients with ST variations (6 of 27)): 0.5 millimeters and 1 millimeters (3×) and 0.8 millimeters and 1.2 millimeters | ST-changes/baseline, Adenosine 140 μg/kg/mn, Total (coronary patients [4]; EKG, total of 6 patients): 5.5 millimeters | Chest pain: adverse event severity cumulated score (coronary patients [4]; [11]): 60 | Dyspnea: adverse event severity cumulated score (coronary patients [4]; [11]): 40 | Flushing: adverse event severity cumulated score (coronary patients [4]; [11]): 43.5 | Stress score A (Adenoscan) (coronary patients [5]): 5 (5×) and 4 (2×) and 14 and 13 and 7 | Differences in velocity measurements between first and second adenosine infusions ([2]; 140 μg/kg/min twice, 5 patients, P>0.05): No statistically significant differences | Mean velocity ADE Max ([2]; (DIP5 group)): 61.4 cm/s | Mean velocity ADE Max ([2]; cumulated, all 40 patients): 63.6 cm/s | Peak velocity ADE Max ([2]; cumulated, all 40 patients): 85.3 cm/sec | Mean velocity ADE Max [2, 12]: 60.4 cm/s | Peak velocity ADE Max [2, 12]: 80 cm/sec | Mean velocity ADE Max [2, 13]: 80.2 cm/s | Peak velocity ADE Max [2, 13]: 107 cm/sec | Peak velocity ADE Max [2, 14]: 82.6 cm/sec | Mean velocity ADE Min ([2]; cumulated, all 40 patients): 23.7 cm/s | Peak velocity ADE Min ([2]; cumulated, all 40 patients): 31.2 cm/sec | Mean velocity ADE Min [2, 12]: 22.2 cm/s | Peak velocity ADE Min [2, 12]: 28 cm/sec | Mean velocity ADE Min [2, 13]: 28.2 cm/s | Peak velocity ADE Min [2, 13]: 37.6 cm/sec | Mean velocity ADE Min [2, 14]: 23.1 cm/s | Peak velocity ADE Min [2, 14]: 30.6 cm/sec | MV-ADE Min [2, 15]: 21 cm/sec and 23 cm/sec (2×) and 25 cm/sec and 20 cm/sec | PV-ADE Min [2, 15]: 25 cm/sec and 33 cm/sec (2×) and 27 cm/sec and 32 cm/sec | MV-ADE1 Min [2, 16]: 25 cm/s and 17 cm/s and 22 cm/s and 23 cm/s and 20 cm/s | PV-ADE1 Min [2, 16]: 34 cm/sec and 23 cm/sec and 30 cm/sec (2×) and 28 cm/sec | MV-ADE1 Min, Mean [2, 17]: 21.4 cm/s | PV-ADE1 Min, Mean [2, 17]: 29 cm/sec | MV-ADE2 Min [2, 18]: 23 cm/s and 16 cm/s and 22 cm/s and 21 cm/s and 20 cm/s | PV-ADE2 Min [2, 18]: 31 cm/sec and 22 cm/sec and 29 cm/sec and 26 cm/sec and 25 cm/sec | MV-ADE2 Min, Mean [2, 19]: 20.4 cm/s | PV-ADE2 Min, Mean [2, 19]: 26.6 cm/sec | PV-ADE1 Max ([2]; first adenosine infusion 140 μg/kg/min, stress, individual patients (first control experiment), listed as ADE1): 68 cm/sec and 65 cm/sec and 102 cm/sec and 73 cm/sec and 70 cm/sec | MV-ADE1 Max ([2]; first adenosine infusion 140 μg/kg/min, stress, individual patients, listed as ADE1): 49 cm/s and 48 cm/s and 75 cm/s and 53 cm/s and 50 cm/s | MV-ADE1 Max, Mean [2, 20]: 55 cm/s | PV-ADE1 Max, Mean [2, 20]: 75.6 cm/sec | Max velocity differential MV (ADE1 − ADE2) [2, 21]: (ADE2) = 2.4 cm/sec | Max velocity differential PV (ADE1 − ADE2) [2, 21]: (ADE2) = 4.8 cm/sec | MV-ADE2 Max [2, 22]: 45 cm/sec and 48 cm/sec (2×) and 75 cm/sec and 47 cm/sec | PV-ADE2 Max [2, 22]: 60 cm/sec and 66 cm/sec and 103 cm/sec and 63 cm/sec and 62 cm/sec | MV-ADE2 Max, Mean [2, 23]: 52.6 cm/s | PV-ADE2 Max, Mean [2, 23]: 70.8 cm/sec | MV-ADE Max [2, 24]: 71 cm/s and 67 cm/s and 86 cm/s and 64 cm/s and 61 cm/s | PV-ADE Max [2, 24]: 88 cm/sec and 92 cm/sec and 112 cm/sec and 84 cm/sec (2×) | Mean global visual analogue scale (VAS) score for the three main adverse events ([6]; Group DIP4 (dipyridamole 35 μg/kg in SC), n=5): 5.4 | Mean global visual analogue scale (VAS) score for the three main adverse events ([6]; Group DIP5 (dipyridamole 28 μg/kg in SC), n=30): 5.95 | Mean global visual analogue scale (VAS) score for the three main adverse events ([6]; Group DIP6 (dipyridamole 23 μg/kg in SC), n=5): 8.2 | Symptoms under ADE ([6]; adenosine 140 μg/kg/min, individual patients (second control experiment)): None (2×) and Dyspnea and Flushing (2×) | Symptoms under ADE: score ([6]; adenosine 140 μg/kg/min, score out of 10, individual patients): 5/10 and 8/10 and 6/10 | Chest pain: # patients reporting events, ADE [6, 25]: 9 | Chest pain: frequency, ADE [6, 25]: 22.5% | Dyspnea: # patients reporting events, ADE [6, 25]: 20 | Dyspnea: frequency, ADE [6, 25]: 50% | Flushing: # patients reporting events, ADE [6, 25]: 21 | Flushing: frequency, ADE [6, 25]: 52.5%
